This passage reports IC50 results from paper PMC10300260 (The Journal of Biological Chemistry, 2023).

Assay [1] has as its target T1, TcK2 (T. cruzi eIF2α kinase 2, PERK homologue).
T1 construct: gene TcYC6_0089220; kinase domain KD5 (S659-I976)
The assay is described as follows: LANCE TR-FRET kinase assay with p70S6K peptide; DSF ΔTm […] °C; knockout parasites less sensitive. It counts as biochemical, Trypanosoma cruzi.

Assay [2] has the same target. The assay is described as follows: LANCE TR-FRET kinase assay with p70S6K peptide; DSF ΔTm […] °C. The class given is biochemical, Trypanosoma cruzi.

Compound `Cc1nc(Nc2ncc(C(=O)Nc3c(C)cccc3Cl)s2)cc(N2CCN(CCO)CC2)n1` [Dasatinib] displayed an IC50 in assay [1] of 190 ± 20 nM.
The compound `Cn1cc(-c2[nH]c3cc(NC(=O)[C@H](N)C4CCCCC4)cc4c3c2C=NNC4=O)cn1` [PF-477736] yielded an IC50 in assay [2] of 670 ± 20 nM.
